Results: patent US20080181971A1, “Combination Cancer Treatments Comprising Elsamitrucin and Other Agents” (priority 2007, published 2008)
Like-named read-outs stand apart in the source and are kept apart here.

What was measured:
Assay type in all cases: cell-based
[1] = test system: HT29 human colon carcinoma cell line; experiment: MTT growth inhibition assay, single agents and fixed-ratio combinations with elsamitrucin (Chou-Talalay, CalcuSyn), HT29
Experimental: (§1) These individual agents and their combinations were evaluated for in vitro activity against the HT29 colon carcinoma, SKMES non-small cell lung carcinoma, and Daudi B-lymphoblastic cell lines. Cell growth in 96-well microculture plates was determined with a semi-automated MTT assay. Efficacies of drug combinations were analyzed according to the methods of Chou and Talalay, utilizing CalcuSyn software. Twenty-one in vitro experiments were conducted to determine the individual and combined growth inhibitory activities of elsamitrucin and the ten selected agents in the three cell lines.
(§2) b. Cell Lines. The human HT29 colon carcinoma, SKMES non-small cell lung carcinoma, and Daudi B-lymphoblastic cell lines were originally obtained from ATCC (American Type Culture Collection). These cell lines have been maintained and stored as frozen stocks. […] The medium for Daudi cells was additionally supplemented with 1 mM sodium pyruvate.
(§3) c. Growth Inhibition Assay. Anti-proliferative activities against the HT29, SKMES, and Daudi cell lines were evaluated in vitro by the MTT assay. Cells (1,500-2,000 cells/well) were seeded in a 96-well microculture plate in 180 pL of medium/well. […] DMSO was present in all wells at a final concentration of 0.1%. […] When the appropriate cell density was attained in the control wells, the plates were centrifuged briefly, and 100 pL of the growth medium was removed. The cell cultures were incubated with 50 μL of MTT reagent (1 mg/mL in Dulbecco's phosphate-buffered saline) for 4 hr at 37° C. The resultant purple formazan precipitate was solubilized with 200 μL of 0.04 N HCl in isopropanol.
(§4) The results of each experiment were stored in Excel format.
(§5) d. Preliminary Experiments: Design and Data Analysis. […] The initial experiments utilized serial three-fold dilutions of the drugs to produce ten test concentrations over a broad concentration range. Based on the initial results, a narrower concentration range was selected, and serial 1:1.5 dilutions were utilized to produce ten test concentrations. Experiments were repeated as needed.
(§6) For assays that utilized lower dilution factors to produce narrower concentration ranges, the results were analyzed with both Prism and CalcuSyn (as described below) to allow comparison of the IC50 and Da, values. The results guided the selection of appropriate concentration ranges and concentration ratios for the combination experiments.
(§7) e. Combination Experiments: Design and Data Analysis. The fixed-ratio design of Chou was used for the combination experiments. For each experiment, the drug solutions were mixed at a ratio that was expected to provide approximately equipotent concentrations, and the mixture was serially diluted with medium containing 1% DMSO to yield 10× stock solutions of the test concentrations. […] Each agent was tested individually and in combination at seven concentrations. The concentration range selected for each assay was designed to bracket the concentrations that produced half-maximal effects (ED50) with each single agent and their mixture. The concentrations used for the single-drug assays were twice as high as their concentrations in the mixture. Each assay was performed in quadruplicate. For each drug combination, the individual agents and their mixture were assayed on the same 96-well plate. The effects of the individual drugs and their combinations were analyzed by the method of Chou and Talalay. The results of each experiment were entered into CalcuSyn (BIOSOFT) for dose-effect analysis.
(§8) where Acontrol and Adrug are the respective absorbances of vehicle control and drug-treated wells in the MIT assay.
(§9) where the slope, m, is related to the sigmoidicity of the dose-effect curve, with m=1, >1, and <1 indicating hyperbolic, sigmoidal, and reverse sigmoidal shapes, respectively.

[2] = test system: Daudi human lymphoma cell line; experiment: MTT growth inhibition assay, single agents and fixed-ratio combinations with elsamitrucin (Chou-Talalay, CalcuSyn), Daudi; conditions: Homo sapiens, Daudi
Experimental: as §1, §2, §3, §4, §5, §6, §7, §8, §9

[3] = test system: SKMES human non-small cell lung carcinoma cell line; experiment: MTT growth inhibition assay, single agents and fixed-ratio combinations with elsamitrucin (Chou-Talalay, CalcuSyn), SKMES; conditions: Homo sapiens
Experimental: as §1, §2, §3, §4, §5, §6, §7, §8, §9

[4] = Homo sapiens, HT-29, HT29, single agent on the same plate as the combination, read-out: Dm Value, Individually, Second Agent
[5] = Homo sapiens, HT-29, SPA-01 (HT29-e21), single agent, dilution 1:3, read-out: Prism IC50
[6] = Homo sapiens, HT-29, SPA-04 (HT29-e22), single agent, dilution 1:1.5, read-out: Prism IC50
[7] = Homo sapiens, HT-29, average of preliminary single-agent experiments, HT29, read-out: Average IC50, Dm value
[8] = Daudi growth inhibition, second agent alone, one value per plate, Table 8 (Supplement), read-out: Dm Value (95% Confidence Interval), Individually, Second Agent
[9] = Daudi growth inhibition, second agent alone, Table 8, read-out: Dm Value (95% Confidence Interval), Individually, Second Agent
[10] = SPA-05 (Daudi-e01), single agent, dilution 1:3, read-out: Prism IC50
[11] = SPA-08 (Daudi-e02), single agent, dilution 1:1.5, read-out: CalcuSyn Dm
[12] = SPA-08 (Daudi-e02), single agent, dilution 1:1.5, read-out: Prism IC50
[13] = average of preliminary single-agent experiments, read-out: Average IC50, Dm value
[14] = read-out: approximate Dm values for the second drugs as single agents
[15] = SKMES growth inhibition, second agent alone, one value per plate (Experiment ID), read-out: Dm Value (95% Confidence Interval), Individually, Second Agent
[16] = SKMES, single agent on the same plate as the combination, read-out: Dm Value, Individually, Second Agent
[17] = SPA-02 (SKMES-e22), single agent, dilution 1:3, read-out: Prism IC50
[18] = SPA-03 (SKMES-e23), single agent, dilution 1:1.5, read-out: CalcuSyn Dm
[19] = SPA-03 (SKMES-e23), single agent, dilution 1:1.5, read-out: Prism IC50
[20] = average of preliminary single-agent experiments, SKMES, read-out: Average IC50, Dm value
[21] = HT29, single agent on the same plate as the combination, read-out: Dm Value, Individually, Second Agent
[22] = Homo sapiens, HT-29, SPA-04 (HT29-e22), single agent, dilution 1:1.5, read-out: CalcuSyn Dm
[23] = SPA-15 (Daudi-e03), single agent, dilution 1:1.5 (elsamitrucin 1:1.33), read-out: CalcuSyn Dm
[24] = SPA-15 (Daudi-e03), single agent, dilution 1:1.5 (elsamitrucin 1:1.33), read-out: Prism IC50
[25] = SPA-09 (SKMES-e25), single agent, dilution 1:1.5, read-out: CalcuSyn Dm
[26] = SPA-09 (SKMES-e25), single agent, dilution 1:1.5, read-out: Prism IC50

Which results are given for `Nc1ccn([C@@H]2O[C@H](CO)[C@@H](O)C2(F)F)c(=O)n1` [Gemcitabine, gemcitabine]?
IC50 [1, 4]: 0.004 µM; IC50 [1, 5]: 0.0046 µM; IC50 [1, 6]: 0.01 µM; IC50 ([1]; Homo sapiens, HT-29, SPA-10 (HT29-e24), single agent, dilution 1:1.5, read-out: CalcuSyn Dm): 0.006 µM; IC50 ([1]; Homo sapiens, HT-29, SPA-10 (HT29-e24), single agent, dilution 1:1.5, read-out: Prism IC50): 0.004 µM; IC50 [1, 7]: 0.005 µM; IC50 [2, 8]: 0.0012 µM; IC50 [2, 9]: 0.0012 µM; IC50 [2, 10]: 0.0006 µM; IC50 [2, 11]: 0.0013 µM; IC50 [2, 12]: 0.0014 µM; IC50 [2, 13]: 0.001 µM; IC50 [2, 14]: ~0.0012 µM; IC50 [3, 15]: 0.0018 µM; IC50 [3, 16]: 0.0028 µM; IC50 [3, 17]: 0.0015 µM; IC50 [3, 18]: 0.0018 µM; IC50 [3, 19]: 0.0025 µM; IC50 [3, 20]: 0.002 µM

Which results are given for `O=NN(CCCl)C(=O)NCCCl` [Carmustine, carmustine]?
IC50 [1, 21]: 128 µM; IC50 [1, 5]: > 10 µM; IC50 [1, 22]: 60 µM; IC50 [1, 6]: 72 µM; IC50 [1, 7]: 66 µM; IC50 [2, 9]: 42 µM; IC50 [2, 11]: 25 µM; IC50 [2, 12]: 28 µM; IC50 [2, 23]: 25.8 µM; IC50 [2, 24]: 20.8 µM; IC50 [2, 13]: 24.9 µM; IC50 [2, 14]: ~42 µM; IC50 [3, 15]: 69.8 µM; IC50 [3, 16]: 69.8 µM; IC50 [3, 17]: 1.44 µM; IC50 [3, 25]: ~96 µM; IC50 [3, 26]: ~78 µM

For `COc1cccc2c1C(=O)c1c(O)c3c(c(O)c1C2=O)C[C@@](O)(C(=O)CO)C[C@@H]3O[C@H]1C[C@H](N)[C@H](O)[C@H](C)O1` [Doxorubicin, doxorubicin], which IC50 [1, 21] is on record?
Its IC50 is 0.048 µM.

And the IC50 [1, 5]?
Its IC50 is 0.04 µM.

And the IC50 [1, 22]?
The IC50 was 0.057 µM.

And the IC50 [1, 6]?
The IC50 was 0.029 µM.

What about the IC50 [1, 7] of the same molecule?
The IC50 was 0.042 µM.

And the IC50 [2, 8]?
Its IC50 is 0.009 µM.

And the IC50 [2, 9]?
The IC50 was 0.009 µM.

What about the IC50 [2, 10] of the same molecule?
Its IC50 is roughly 0.001 µM.

And the IC50 [2, 11]?
Its IC50 is roughly 0.033 µM.

What about the IC50 [2, 12] of the same molecule?
Its IC50 is roughly 0.0095 µM.

What about the IC50 [2, 23] of the same molecule?
Its IC50 is 0.005 µM.

What about the IC50 [2, 24] of the same molecule?
Its IC50 is 0.005 µM.

And the IC50 [2, 13]?
The IC50 was 0.005 µM.

What about the IC50 [2, 14] of the same molecule?
The IC50 was roughly 0.009 µM.

What about the IC50 [3, 15] of the same molecule?
Its IC50 is 0.083 µM.

What about the IC50 [3, 16] of the same molecule?
The IC50 was 0.056 µM.

And the IC50 [3, 17]?
The IC50 was 0.007 µM.

And the IC50 [3, 18]?
The IC50 was roughly 0.2 µM.

And the IC50 [3, 19]?
Its IC50 is roughly 0.05 µM.

And the IC50 [3, 25]?
The IC50 was 0.021 µM.

What about the IC50 [3, 26] of the same molecule?
The IC50 was 0.023 µM.

And the IC50 [3, 20]?
Its IC50 is 0.017 µM.

How did the IC50 [1, 4] turn out when `CN(Cc1cnc2nc(N)nc(N)c2n1)c1ccc(C(=O)N[C@@H](CCC(=O)O)C(=O)O)cc1` [Methotrexate, methotrexate] was run?
The IC50 was 0.022 µM.

What about the IC50 [1, 5] of the same molecule?
The IC50 was 0.0254 µM.

What about the IC50 [1, 22] of the same molecule?
The IC50 was 0.023 µM.

What about the IC50 [1, 6] of the same molecule?
The IC50 was 0.018 µM.

And the IC50 [1, 7]?
Its IC50 is 0.022 µM.

What about the IC50 [2, 8] of the same molecule?
The IC50 was 0.045 µM.

What about the IC50 [2, 9] of the same molecule?
Its IC50 is 0.045 µM.

What about the IC50 [2, 10] of the same molecule?
The IC50 was roughly 0.02 µM.

And the IC50 [2, 11]?
The IC50 was 0.05 µM.

And the IC50 [2, 12]?
Its IC50 is 0.049 µM.

What about the IC50 [2, 13] of the same molecule?
Its IC50 is 0.05 µM.

And the IC50 [2, 14]?
Its IC50 is roughly 0.045 µM.

And the IC50 [3, 15]?
The IC50 was 0.012 µM.

And the IC50 [3, 16]?
The IC50 was 0.0082 µM.

What about the IC50 [3, 17] of the same molecule?
Its IC50 is roughly 0.0006 µM.

And the IC50 [3, 25]?
Its IC50 is 0.0095 µM.

And the IC50 [3, 26]?
Its IC50 is 0.0085 µM.

And the IC50 ([3]; SPA-14 (SKMES-e27), single agent, dilution 1:1.5 (carmustine also 1:2, r12), read-out: CalcuSyn Dm)?
The IC50 was 0.0107 µM.

What about the IC50 ([3]; SPA-14 (SKMES-e27), single agent, dilution 1:1.5 (carmustine also 1:2, r12), read-out: Prism IC50) of the same molecule?
The IC50 was 0.0104 µM.

And the IC50 [3, 20]?
Its IC50 is 0.01 µM.
